Measured values as given in article PMC3914206.

Experiments:
[1] = molecular target: T1, panel of 442 kinases (Homo sapiens, UniProt Q9UPZ9); format: binding; conditions: Compound Concentration 10 µM
T1 construct: purchased KINOMEscan
T1 sequence (Q9UPZ9 1-632): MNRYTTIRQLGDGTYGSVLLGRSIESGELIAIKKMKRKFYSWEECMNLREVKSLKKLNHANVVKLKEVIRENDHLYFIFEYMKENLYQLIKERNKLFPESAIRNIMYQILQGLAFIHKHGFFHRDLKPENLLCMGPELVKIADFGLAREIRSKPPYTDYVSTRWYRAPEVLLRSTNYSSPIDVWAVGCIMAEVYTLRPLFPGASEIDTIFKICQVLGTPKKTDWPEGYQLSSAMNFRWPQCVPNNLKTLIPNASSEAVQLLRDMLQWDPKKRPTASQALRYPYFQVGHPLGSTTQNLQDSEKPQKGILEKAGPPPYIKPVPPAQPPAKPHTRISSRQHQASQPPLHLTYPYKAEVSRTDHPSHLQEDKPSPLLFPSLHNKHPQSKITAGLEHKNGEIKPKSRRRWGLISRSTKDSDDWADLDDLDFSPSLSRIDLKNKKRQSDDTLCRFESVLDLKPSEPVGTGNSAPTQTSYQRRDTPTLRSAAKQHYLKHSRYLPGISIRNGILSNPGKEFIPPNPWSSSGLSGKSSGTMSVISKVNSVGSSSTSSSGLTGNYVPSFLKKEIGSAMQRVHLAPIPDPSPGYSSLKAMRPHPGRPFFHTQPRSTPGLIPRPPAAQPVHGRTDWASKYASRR
Source text: (§1) We assessed the selectivity of members of this scaffold using the KINOMEscan methodology across a near comprehensive panel of 442 kinases [[18,27]].

[2] = molecular target: T2, panel of 442 kinases (Homo sapiens, UniProt Q9UEE5); format: binding; conditions: Compound Concentration 10 µM
T2 construct: purchased KINOMEscan
T2 sequence (Q9UEE5 1-414): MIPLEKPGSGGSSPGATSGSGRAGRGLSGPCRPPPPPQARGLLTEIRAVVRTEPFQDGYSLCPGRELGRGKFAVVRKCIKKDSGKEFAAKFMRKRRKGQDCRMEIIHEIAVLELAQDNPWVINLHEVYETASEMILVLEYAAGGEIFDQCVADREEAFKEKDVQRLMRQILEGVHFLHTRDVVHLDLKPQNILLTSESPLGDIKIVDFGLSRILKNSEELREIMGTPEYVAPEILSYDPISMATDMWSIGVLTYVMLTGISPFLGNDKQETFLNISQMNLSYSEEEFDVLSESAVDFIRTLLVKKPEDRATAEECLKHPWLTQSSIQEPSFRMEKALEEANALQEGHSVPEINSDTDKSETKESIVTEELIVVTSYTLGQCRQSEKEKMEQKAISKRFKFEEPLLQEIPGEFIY
Source text: as §1

CCOc1cc(C(=O)N2CCC(N3CCN(C)CC3)CC2)ccc1Nc1ncc2c(n1)N(C1CCCC1)c1ccccc1C(=O)N2C [Compound 26]
KINOMEscan: ICK [1]: 100
KINOMEscan: DRAK1 [2]: 100

COc1cc(C(=O)N2CCC(N3CCN(C)CC3)CC2)ccc1Nc1ncc2c(n1)N(C1CCCC1)c1ccccc1C(=O)N2C [Compound 25, 11-cyclopentyl-2-((2-methoxy-4-(4-(4-methylpiperazin-1-yl)piperidine-1-carbonyl)phenyl)amino)-5-methyl-5H-benzo[e]pyrimido[5,4-b][1,4]diazepin-6(11H)-one]
KINOMEscan: ICK [1]: 100
KINOMEscan: DRAK1 [2]: 100

COc1cc(C(=O)N2CCC(N3CCN(C)CC3)CC2)ccc1Nc1ncc2c(n1)N(C)c1ccccc1C(=O)N2C [15 (LRRK2-IN-1)]
KINOMEscan: ICK [1]: 90
KINOMEscan: DRAK1 [2]: 100
